Results taken from patent publication US9260486B2 (The University of Vermont and State Agricultural College, priority 2012, dated 2016).
Values belong to the molecule of their own block, whether it stands above or below them. Residues, ends and D or L forms follow the SMILES beside them.

Assays:
KCa1.1 channels = experiment: Inside-out patch clamp, open probability of single KCa1.1 channels in membrane patches from VSM cells reconstituted with recombinant PKG; type: cell-based; details: rat posterior cerebral artery VSM cells, with PKG Iα and ATP
Source text: FIG. 4: SW:329-358 activates single KCa channels in inside-out membrane patches excised from cerebral artery myocytes.
Once we had supporting evidence that molecules carrying the knob-type ligand conformation were capable of activating PKG we set out to determine if this novel mechanism of kinase activation was functionally relevant. The high conductance calcium-activated potassium channel KCa1.1 is a well-established intracellular target of […] in vascular smooth muscle (VSM) cells. Using inside-out patch clamp configurations from freshly dissociated VSM cells from rat posterior cerebral arteries, we measured the changes of open probability (NPO) of single KCa1.1 channels in response to PKG stimulation in membrane patches excised from freshly-dissociated vascular smooth muscle cells (FIG. 4).

PKG Iα [1] = biological target: T1, PKG Iα (Bos taurus, UniProt P00516); experiment: 32P-incorporation assay, activation of PKG Iα by SW peptides; type: biochemical
T1 construct: made in house
T1 sequence (P00516 1-671): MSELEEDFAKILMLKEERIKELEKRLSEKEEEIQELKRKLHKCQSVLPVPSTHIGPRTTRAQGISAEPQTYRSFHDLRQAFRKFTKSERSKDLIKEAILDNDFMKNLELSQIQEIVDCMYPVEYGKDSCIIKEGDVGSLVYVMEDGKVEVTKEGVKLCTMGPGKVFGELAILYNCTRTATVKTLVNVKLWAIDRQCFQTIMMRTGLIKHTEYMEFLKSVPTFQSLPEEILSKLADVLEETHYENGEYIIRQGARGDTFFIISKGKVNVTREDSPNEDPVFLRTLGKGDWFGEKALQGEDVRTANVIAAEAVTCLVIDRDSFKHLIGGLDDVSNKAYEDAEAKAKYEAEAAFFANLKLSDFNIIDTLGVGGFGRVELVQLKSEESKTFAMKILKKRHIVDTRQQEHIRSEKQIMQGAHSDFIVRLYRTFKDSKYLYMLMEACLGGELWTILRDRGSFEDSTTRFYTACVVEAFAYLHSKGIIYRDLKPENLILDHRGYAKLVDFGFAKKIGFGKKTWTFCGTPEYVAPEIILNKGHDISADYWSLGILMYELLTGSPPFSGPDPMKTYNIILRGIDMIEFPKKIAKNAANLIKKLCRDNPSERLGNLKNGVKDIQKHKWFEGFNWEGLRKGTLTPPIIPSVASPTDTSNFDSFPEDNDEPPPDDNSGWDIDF
Source text: Starting with the 29-mer peptide (329-358), covering the full length of the switch helix, an array of peptide derivatives were synthesized to study the contributions from different segments of the SW helix peptide towards the functional phenotype of PKG Iα. Circular dichroism spectroscopy confirmed that the 29-mer SW peptide adopted a helical secondary structure. […] The activity of this short peptide is surprising. To activate the kinase, this non-helical 8-mer peptide first has to adopt the active helical conformation to activate PKG. However, this finding provides critical support in favor that the confined knob/nest interaction site may serve as a novel target site for non-cyclic nucleotide driven activation of PKG.
The isolation of the SW independent from the kinase allows us to discretely probe the nest in future studies using native and non-native amino acids. Moreover, the use of the SW: 329-358 allows us to answer more fundamental questions about the nature of the regulatory and catalytic domains and the communication between the B-site and the nest. […] The structure of this inhibitor contains a β-phenyl-1,N^2-etheno group attached to the pyrimidine ring. We hypothesized previously, based upon structural observations, that the presence of this phenyl group in the syn orientation effectively blocks PBC closure and reduces the potency of the SW:329-358 in a dose-dependent manner.
Determination of activation constants was performed using a [γ-^32P]-ATP transfer assay as previously reported (Ruth et al., 1991; Tegge et al., 1995). […] Aliquots, spotted on P81 Whatman paper were subjected to scintillation counting. All experiments were performed in the presence of the PKA-specific inhibitor, PKI^5-24 (70 nM) to suppress endogenous PKA activity.

PKG Iα [2] = biological target: T1, PKG Iα; details: Butt et al., 1995; cited from earlier work

Molecule: Nc1nc2c(ncn2[C@@H]2O[C@@H]3COP(=O)(O)O[C@H]3[C@H]2O)c(=O)[nH]1 [cGMP]
KCa1.1 channel open probability (NPO) (KCa1.1 channels): significantly increased

Molecule: CC(C)C[C@H](NC(=O)[C@H](CC(N)=O)NC(=O)[C@H](C)NC(=O)[C@H](Cc1ccccc1)NC(=O)[C@H](Cc1ccccc1)NC(=O)[C@H](C)NC(=O)[C@H](C)N)C(=O)N[C@@H](CCCCN)C(=O)O [SW:348-355] (H-AAFFANLK-OH; N-terminus and C-terminus assumed)
Emax (PKG Iα [1]; read-out: activation relative to activation associated with cGMP, 8-mer knob peptide): 30%

Molecule: O=c1c2nc(Br)n([C@@H]3O[C@@H]4CO[P@@](O)(=S)O[C@H]4[C@H]3O)c2nc2[nH]c(-c3ccccc3)cn12 [Rp-PET, (RP)-8-Br-PET-cGMPS]
effect of Rp-PET on activation constant of PKG Iα by SW:329-358 (PKG Iα [1]; Rp-PET titrated into activation reactions): linear response of the activation constant to the amount of Rp-PET titrated | affinity for PKG Iα regulatory domain binding sites relative to cGMP (PKG Iα [2]): higher affinity for the PHG Iα regulatory domain binding sites than cGMP

activation of PKG Iα (PKG Iα [1]; under cGMP priming conditions): completely inactive
Molecule: SW:329-349: SW-peptide derivative with additional removal of the knob residues (DVSNKAYEDAEAKAKYEAEAA)
